Active and inactive are the calls of the source.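 Rule for the calls: active = maximal inhibition of USP17 at or above 30% in the confirmation dose-response, a value not among the printed readouts; inactive = the rest.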
Target: Ubiquitin carboxyl-terminal hydrolase 17-like protein 5 (Homo sapiens) (UniProt A8MUK1)
Assay: ubiquitin-specific protease 17 DUB inhibitors, concentration-effect assay, cell-free, verification of initial screening actives (AID 1645864)
Conditions: purified USP17, ubiquitin-rhodamine cleavage fluorescence, 3 h

Chain of Ubiquitin carboxyl-terminal hydrolase 17-like protein 5 (Homo sapiens) (A8MUK1 whole entry, looked up): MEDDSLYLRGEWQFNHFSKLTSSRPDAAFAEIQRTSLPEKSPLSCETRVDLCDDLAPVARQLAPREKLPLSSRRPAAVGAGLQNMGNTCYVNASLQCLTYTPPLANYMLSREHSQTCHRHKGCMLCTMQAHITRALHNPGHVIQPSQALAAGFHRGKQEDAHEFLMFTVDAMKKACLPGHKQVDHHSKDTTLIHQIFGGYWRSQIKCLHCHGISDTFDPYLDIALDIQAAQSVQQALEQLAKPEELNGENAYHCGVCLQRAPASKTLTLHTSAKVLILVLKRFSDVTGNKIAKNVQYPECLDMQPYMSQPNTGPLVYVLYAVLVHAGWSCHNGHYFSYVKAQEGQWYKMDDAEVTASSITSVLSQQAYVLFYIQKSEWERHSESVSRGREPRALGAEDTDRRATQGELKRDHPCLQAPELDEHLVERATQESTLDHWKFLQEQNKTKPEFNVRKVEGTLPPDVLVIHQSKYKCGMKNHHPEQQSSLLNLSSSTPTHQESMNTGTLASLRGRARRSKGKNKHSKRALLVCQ

Row | Compound | IC50
1 | CCOc1ccc(-n2c(C)cc(/C=C(\C#N)c3nc4ccccc4[nH]3)c2C)cc1 | > 50 µM (inactive)
2 | Cc1ccc(C)c(-n2c(N)c(C(=O)NCCc3ccccc3)c3nc4ccccc4nc32)c1 | > 50 µM (inactive)
3 | Cc1nc2cc(NC(=O)C3CN(C(=O)c4cnccn4)C3)ccc2s1 | > 50 µM (inactive)
4 | Cc1cc(C)cc(-n2ccnc(SCC(=O)Nc3cccc(Cl)c3)c2=O)c1 | 28.3 µM
5 | COc1cccc(NC(=O)C2CCN(C(=O)c3cc(-c4cccnc4)n[nH]3)CC2)c1 | > 50 µM (inactive)
6 | Cc1ccc(C(=O)Nc2cc3c4c(c2)CC(=O)N4CCC3)cc1 | > 50 µM (inactive)
7 | CC1CCCN(S(=O)(=O)c2cc3cc(F)ccc3oc2=O)C1 (stereo unspecified) | 31.1 µM
8 | Cn1c(CCNC(=O)c2[nH]nc3c2CCc2ccccc2-3)nc2ccccc21 | 32.8 µM
9 | O=C(COC(=O)c1ccc(NS(=O)(=O)c2ccc3c(c2)OCCO3)cc1)NCc1ccc(Cl)cc1 | > 50 µM (inactive)
10 | C/C=C1/C2=CCCN3C(=O)O[C@H]([C@H]1O)[C@H]23 | 1.42 µM
11 | Cc1ccc2c(Nc3ccc(CC(=O)O)cc3)c(C(=O)N3CCCC3)cnc2n1 | > 50 µM (inactive)
12 | O=C(CC1Oc2ccccc2NC1=O)Nc1ccccc1Br (stereo unspecified) | 33.4 µM
13 | CCC(C)NC(=O)Cn1c(=O)n(-c2ccccc2)c(=O)c2ccc(C(=O)NCc3ccco3)cc21 (stereo unspecified) | 45 µM
14 | Cc1c(Cl)cccc1NC(=O)Cn1c(=O)c2ccccc2n2nncc12 | > 50 µM (inactive)
15 | COc1cccc(N2C(=O)N(CC(=O)NCc3ccc(Cl)cc3)c3ccccc3S2(=O)=O)c1 | 19.1 µM
16 | O=C(Cn1c(=O)n(Cc2ccc(F)cc2)c(=O)c2ncccc21)Nc1ccccc1 | 45.2 µM
17 | Cc1nc2nc(SCc3nc4ccccc4n3C)[nH]c2cc1Br | 3.51 µM
18 | CCN(CC)c1nc(F)c2c(c1F)S(=O)(=O)CCN2Cc1cccnc1 | > 50 µM (inactive)
19 | COc1ccc(S(=O)(=O)N(C)Cc2cccs2)cc1OC | > 50 µM (inactive)
20 | COc1ccc(CN=C2NS(=O)(=O)C(c3ccc(F)cc3)=C2C)cc1OC | 18.8 µM
21 | COc1cc(OC)c2c(c1)C(=O)C1=C(COC(C)(O)C1)C2=O (stereo unspecified) | 3.44 µM
22 | COc1cc([C@@H]2c3cc4c(cc3C[C@@H]3COC(=O)[C@H]32)OCO4)cc(OC)c1OC | 17.3 µM
23 | CN(C)c1ccc(/C=N/NC(=O)c2ccc(Cl)cc2)cc1 | 6.27 µM
24 | Cc1ccccc1NC(=O)CNc1nc(Nc2ccccc2)nc(Nc2ccccc2)n1 | 21.7 µM

Row | Compound | IC50
25 | Cc1nn(-c2ccccc2)c2c1N=C1C(Cl)=CC(Cl)=CN1C21C(=O)Nc2ccccc21 (stereo unspecified) | > 50 µM (inactive)
26 | O=C(NCc1cccc(NC(=O)C2CC2)c1)Nc1cccc2ccccc12 | 39.7 µM
27 | Cc1ccc(NC(=O)c2sc(=S)n(CCc3ccccc3)c2N)cc1 | 2.42 µM
28 | CCOc1ccc(Nc2cc(C(=O)NCCc3ccccc3)c3ccccc3n2)cc1 | 24.1 µM
29 | O=C(c1ccc2ncccc2c1)N1CCC2(C1)Nc1cccnc1NC2=NC1CCCC1 (stereo unspecified) | > 50 µM (inactive)
30 | COc1ccccc1S(=O)(=O)N1CC[C@@H]2CN(C)[C@@H]2C1 | 32.2 µM
31 | Cc1oc(C2CC2)cc1C(=O)N1CCC2(CC1)CC1(CO2)Nc2ccccc2-n2cccc21 (stereo unspecified) | > 50 µM (inactive)
32 | CCOc1ccccc1C(=O)Oc1ccc2c(C)cc(=O)oc2c1 | 26.1 µM
33 | CCN1C[C@@H]2C[C@]2(c2ccccc2OC)C(=O)c2ncccc21 | > 50 µM (inactive)
34 | CCC(=O)N1c2ccccc2NC2=C(C(=O)CC(c3ccccc3OCc3ccccc3)C2)C1c1ccccc1 (stereo unspecified) | 4.4 µM
35 | O=C(Nc1cc(F)ccc1F)c1ccn(COc2ccc(F)c(Cl)c2)n1 | 38.4 µM
36 | COc1cc(C(=O)NC(Cc2ccccc2)c2nc3ccccc3[nH]2)cc(OC)c1OC (stereo unspecified) | 2.62 µM
37 | Cn1c(=O)/c(=C/c2ccccc2)[nH]c(=O)/c1=C/c1ccccc1 | 5.8 µM
38 | O=C1COc2ccc(NC(=O)c3cnn(Cc4ccccc4)c3)cc2N1 | 39.4 µM
39 | Cc1ccc(S(=O)(=O)Nc2ccccc2SCCS(=O)(=O)c2ccc(Cl)cc2)cc1 | > 50 µM (inactive)
40 | CCOc1ccc(-n2c(SCC(=O)N3CC(=O)Nc4ccccc43)nnc2-c2ccc(OC)cc2)cc1 | 42.5 µM
41 | O=C(CSc1ccc(-c2cccc([N+](=O)[O-])c2)nn1)Nc1cccc(F)c1 | 2.7 µM
42 | COCC(C)Nc1ncc(-c2cnccn2)c(-c2ccc(C)s2)n1 (stereo unspecified) | > 50 µM (inactive)
43 | Cc1ccccc1-c1noc(-c2ccccc2OCC(=O)NC(C)C)n1 | > 50 µM (inactive)
44 | COc1cc2c(cc1NC(=O)c1ccc(-n3cnnn3)cc1)oc1ccccc12 | 0.691 µM
45 | CC(C)(C)C(=O)Nc1ccc(C(=O)Nc2cccc(-c3nnc(-c4ccccc4)o3)c2)cc1 | 5.27 µM
46 | CCOc1ccccc1NC(=O)COc1cc(OC)ccc1C(=O)c1ccccc1 | > 50 µM (inactive)
47 | O=c1[nH]c(C2CCN(S(=O)(=O)c3ccc(S(=O)(=O)NC4CCCCC4)cc3)CC2)nc2c1nnn2Cc1c(F)cccc1Cl | 22.1 µM
48 | CC(C)OC(=O)c1cc2c(ccn2C)n1CC(=O)N1CCN(C(=O)c2ccco2)CC1 | > 50 µM (inactive)

Row | Compound | IC50
49 | C/C1=C\CCC(C)C(O)CC(O)C(C)C(O)CCC(C)C(O)CC2(O)OC(CC(OC(=O)CC(=O)O)CC(O)CC(O)CC(O)C(C)C(O)/C=C/C(C)C(C(C)CCCCCCCCN=C(N)N)OC1=O)CC(O)C2O (stereo unspecified) | > 50 µM (inactive)
50 | N#Cc1cccc(NC(=O)Nc2cccn(Cc3ccccc3F)c2=O)c1 | 21 µM
51 | Cc1ccc(Nc2nc(O)c(CC(=O)Nc3ccccc3C)s2)cc1C | 18 µM
52 | O=c1c(S(=O)(=O)c2cc(F)cc(F)c2)c[nH]c2cc(Cl)ccc12 | 23.8 µM
53 | O=C1CC(C(=O)Nc2ccc(F)cc2)n2nc(SCc3ccccc3)nc2N1 (stereo unspecified) | 38.3 µM
54 | COc1ccc(NC(=O)C2c3ccccc3C(=O)N(C3CCCC3)C2c2cccs2)cc1OC (stereo unspecified) | 47.1 µM
55 | COc1ccc(OC)c(NC(=O)C2=C(C)Nc3ncnn3C2c2ccccc2OCc2ccc(C)cc2)c1 (stereo unspecified) | 12.2 µM
56 | COc1ccc(-c2cc(N3CCC(NC(=O)c4ccccc4)C3)n[nH]2)cc1 (stereo unspecified) | 20.8 µM
57 | CCOc1ccc(N2C(=O)c3ccccc3C2C(=O)NCc2ccccc2OC)cc1 (stereo unspecified) | 45.8 µM
58 | C/C=C\C1=CC(=O)[C@]23C[C@H]2[C@]2(C)CO[C@@]1(O)[C@@]3(O)O2 | > 50 µM (inactive)
59 | O=C(O)C1CCN(Cc2c(-c3ccco3)nc3ccc(Cl)cn23)CC1 | > 50 µM (inactive)
60 | COc1cccc(-n2cnc3cc(C(=O)NC4CC4)ccc3c2=O)c1 | 15 µM
61 | O=C(Cn1cncc(-c2nc(-c3ccccc3)cs2)c1=O)NC1CCCC1 | 39.5 µM
62 | Cc1cc(C)c2c(-n3cccc3)c(C(=O)NCCc3ccc(S(N)(=O)=O)cc3)sc2n1 | > 50 µM (inactive)
63 | O=C1CC(C(=O)Nc2ccccc2F)n2nc(-c3ccccc3)cc2N1 (stereo unspecified) | 25.3 µM
64 | Cc1ccc(C)c(S(=O)(=O)N2CCC3(CC2)NC(=O)c2ccccc2N3)c1 | 46.1 µM
65 | COc1ccccc1CC(=O)Nc1nc2ccccc2[nH]1 | 33.3 µM
66 | O=C(COC(=O)c1cc(Cl)c2c(c1)OCO2)Nc1ccc2[nH]c(=O)[nH]c2c1 | 4.92 µM
67 | O=C(Nc1nnc2n1CCCS2)c1cc2ccccc2o1 | > 50 µM (inactive)
68 | COc1ccc(OC)c(-c2cn3ccn(-c4ccc5c(c4)CCC5)c(=O)c3n2)c1 | > 50 µM (inactive)
69 | COc1ccccc1C(=O)N1CCc2[nH]c3ccc(F)cc3c2C1 | > 50 µM (inactive)
70 | Cc1c(-c2ccc(C#N)cc2)oc2ccc(Br)cc2c1=O | 2.88 µM
71 | COc1ccc(OCCn2c(C3CC(=O)N(c4cccc(C)c4)C3)nc3ccccc32)cc1 (stereo unspecified) | 0.391 µM

From PubChem BioAssay AID1645864 (Buhrlage Lab, Dana-Farber Cancer Institute and Novartis …, 2021)
